Assay results reported in patent US20250051347A1, “BIFUNCTIONAL CHIMERIC HETEROCYCLIC COMPOUND AND USE THEREOF AS ANDROGEN RECEPTOR DEGRADER” (Hinova Pharmaceuticals, Inc., priority 2021, published 2025).

target: T1, androgen receptor (AR) splicing variant AR-v7 (Homo sapiens, UniProt P10275); assay: Degradation activity on androgen receptor splicing variant AR-v7 in 22RV1 cells (ELISA); type: cell-based; settings: AR-v7 degradation in 22RV1 cells, 48 h, class symbols
T1 construct: The degradation activity of compounds on AR-v7 in 22RV1 cells; host or cells: 22RV1 cells
T1 sequence (P10275 1-644 isoform P10275-3): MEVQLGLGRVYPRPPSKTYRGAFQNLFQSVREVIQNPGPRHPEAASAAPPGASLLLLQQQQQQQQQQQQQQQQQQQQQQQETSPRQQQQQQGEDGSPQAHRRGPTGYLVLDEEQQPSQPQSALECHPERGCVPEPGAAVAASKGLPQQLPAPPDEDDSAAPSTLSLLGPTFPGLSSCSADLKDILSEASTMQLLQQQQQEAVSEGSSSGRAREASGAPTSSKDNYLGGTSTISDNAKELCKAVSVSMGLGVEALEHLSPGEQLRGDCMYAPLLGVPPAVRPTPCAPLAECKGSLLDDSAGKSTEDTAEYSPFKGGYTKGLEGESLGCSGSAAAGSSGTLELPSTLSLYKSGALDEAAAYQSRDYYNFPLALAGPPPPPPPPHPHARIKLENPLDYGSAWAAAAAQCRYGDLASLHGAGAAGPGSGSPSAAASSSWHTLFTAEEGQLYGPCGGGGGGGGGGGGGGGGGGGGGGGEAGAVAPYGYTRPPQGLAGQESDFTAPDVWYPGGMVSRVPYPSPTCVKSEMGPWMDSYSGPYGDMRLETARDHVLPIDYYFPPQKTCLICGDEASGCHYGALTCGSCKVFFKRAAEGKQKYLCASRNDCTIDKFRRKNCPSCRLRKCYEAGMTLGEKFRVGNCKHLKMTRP

Structure (SMILES) | DC50 [nM]
CC(C)(c1ccc(OCCCCCCCCOCCCCNc2ccc3c(c2)C(=O)N(C2CCC(=O)NC2=O)C3=O)cc1)c1ccc(OCc2cccc(NS(C)(=O)=O)n2)cc1 (stereo not drawn) [Example 33, N-(6-((4-(2-(4-((8-(4-((2-(2,6-dioxopiperidin-3-yl)-1,3-dioxoisoindolin-5-yl)amino)butoxy)octyl)oxy)phenyl)propan-2-yl)phenoxy)methyl)pyridin-2-yl)methanesulfonamide] | 101 to 1000
CC(=O)c1nccc(COc2ccc(C(C)(C)c3ccc(OCCCCCCCCOCCCCNc4ccc5c(c4)C(=O)N(C4CCC(=O)NC4=O)C5=O)cc3)cc2)n1 (stereo not drawn) [Example 136, 5-((4-((8-(4-(2-(4-((2-acetylpyrimidin-4-yl)methoxy)phenyl)propan-2-yl)phenoxy)octyl)oxy)butyl)amino)-2-(2,6-dioxopiperidin-3-yl)isoindolin-1,3-dione] | 101 to 1000
CC(=O)c1nccc(COc2ccc(C(C)(C)c3ccc(N4CCC5(CC4)CN(c4ccc6c(c4)C(=O)N(C4CCC(=O)NC4=O)C6=O)C5)cc3)cc2)n1 (stereo not drawn) [Example 305] | 1000 to 5000
CC(C)(c1ccc(OCC#Cc2ccc3c(c2)C(=O)N(C2CCC(=O)NC2=O)C3=O)cc1)c1ccc(OCc2ccnc(N3CC4(COC4)C3)n2)cc1 (stereo not drawn) [Example 310] | 101 to 1000
CC(C)(c1ccc(OCc2ccnc(N3CC4(COC4)C3)n2)cc1)c1ccc(N2CC(CNc3ccc4c(c3)C(=O)N(C3CCC(=O)NC3=O)C4=O)C2)cc1 (stereo not drawn) [Example 570] | 101 to 1000
CC(C)(c1ccc(Oc2ccc(-n3nccn3)nc2)cc1)c1ccc(OC2CC(Nc3ccc4c(c3)CN(C3CCC(=O)NC3=O)C4=O)C2)cc1 (stereo not drawn) [Example 93, 3-(5-((1r,3r)-3-(4-(2-(4-((6-(2H-1,2,3-triazol-2-yl)pyridin-3-yl)oxy)phenyl)propan-2-yl)phenoxy)cyclobutyl)amino)-1-oxoisoindolin-2-yl)piperidin-2,6-dione] | 101 to 1000
CC(=O)c1cc(COc2ccc(C(C)(C)c3ccc(OCCCCCCCCOCCCCNc4ccc5c(c4)C(=O)N(C4CCC(=O)NC4=O)C5=O)cc3)cc2)ccn1 (stereo not drawn) [Example 347, 5-((4-((8-(4-(2-(4-((2-acetylpyridin-4-yl)methoxy)phenyl)isopropan-2-yl)phenoxy)octyl)oxy)butyl)amino)-2-(2,6-dioxopiperidin-3-yl)isoindolin-1,3-dione] | 1000 to 5000
CC(=O)c1nccc(COc2ccc(C(C)(C)c3ccc(OC[C@H]4CCN4c4ccc5c(c4)C(=O)N(C4CCC(=O)NC4=O)C5=O)cc3)cc2)n1 (stereo partly drawn) [Example 307, 5-((R)-2-((4-(2-(4-((2-acetylpyrimidin-4-yl)methoxy)phenyl)propan-2-yl)phenoxy)methyl)azetidin-1-yl)-2-(2,6-dioxopiperidin-3-yl)isoindolin-1,3-dione] | 1000 to 5000
CC1(C)CN(c2nccc(COc3ccc(C(C)(C)c4ccc(O[C@H]5C[C@@H](Nc6ccc7c(c6)C(=O)N(C6CCC(=O)NC6=O)C7=O)C5)cc4)cc3)n2)CCN1 (stereo partly drawn) [Example 458, 5-(((1s,3s)-3-(4-(2-(4-((2-(3,3-dimethylpiperazin-1-yl)pyrimidin-4-yl)methoxy)phenyl)propan-2-yl)phenoxy)cyclobutyl)amino)-2-(2,6-dioxopiperidin-3-yl)isoindolin-1,3-dione] | 11 to 100
Cc1nc(-c2ccc(Oc3ccc(C(C)(C)c4ccc(OC5CC(Nc6ccc7c(c6)C(=O)N(C6CCC(=O)N(C)C6=O)C7=O)C5)cc4)cc3)nn2)no1 (stereo not drawn) [Example 335, 5-((1r,3r)-3-(4-(2-(4-((6-(5-methyl-1,2,4-oxadiazol-3-yl)pyridazine-3-yl)oxy)phenyl)propan-2-yl)phenoxy)cyclobutyl)amino)-2-(1-methyl-2,6-dioxopiperidin-3-yl)isoindolin-1,3-dione] | 101 to 1000
CC(=O)c1nccc(COc2ccc(C(C)(C)c3ccc(O[C@H]4CC[C@H](Nc5ccc6c(c5)C(=O)N(C5CCC(=O)NC5=O)C6=O)CC4)cc3)cc2)n1 (stereo partly drawn) [Example 353, 5-(((1r,4r)-4-(4-(2-(4-((2-acetylpyrimidin-4-yl)methoxy)phenyl)isopropan-2-yl)phenoxy)cyclohexyl)amino)-2-(2,6-dioxopiperidin-3-yl)isoindolin-1,3-dione] | 1000 to 5000
CC(C)(c1ccc(OCc2ccnc(N3CC4(COC4)C3)n2)cc1)c1ccc(OCC2CC(Nc3ccc4c(c3)C(=O)N(C3CCC(=O)NC3=O)C4=O)C2)cc1 (stereo not drawn) [Example 112, 5-((3-((4-(2-(4-((2-(2-oxa-6-azaspiro[3.3]heptan-6-yl)pyrimidin-4-yl)methoxy)phenyl)propan-2-yl)phenoxy)methyl)cyclobutyl)amino)-2-(2,6-dioxopiperidin-3-yl)isoindolin-1,3-dione] | 11 to 100
CC(C)(c1ccc(Oc2cnc(C(=O)C3CCC3)nc2)cc1)c1ccc(O[C@H]2C[C@H](Nc3ccc4c(c3)C(=O)N(C3CCC(=O)NC3=O)C4=O)C2)cc1 (stereo partly drawn) [Example 262] | 11 to 100

Results, then the molecule that gave them:

DC50 [nM] | Structure (SMILES)
11 to 100 | CC(C)(c1ccc(OCc2nc(-n3ccnn3)ccc2F)cc1)c1ccc(O[C@H]2C[C@H](Nc3ccc4c(c3)C(=O)N(C3CCC(=O)NC3=O)C4=O)C2)cc1 (stereo partly drawn) [Example 285]
11 to 100 | Cc1nc(-c2ccnc(Oc3ccc(C(C)(C)c4ccc(O[C@H]5C[C@H](Nc6ccc7c(c6)C(=O)N(C6CCC(=O)NC6=O)C7=O)C5)cc4)cc3)c2)no1 (stereo partly drawn) [Example 474]
11 to 100 | Cc1nc(-c2ccc(Oc3ccc(C(C)(C)c4ccc(O[C@H]5C[C@@H](Nc6ccc7c(c6)C(=O)N(C6CCC(=O)NC6=O)C7=O)C5)cc4)cc3)nn2)no1 (stereo partly drawn) [Example 337]
11 to 100 | Cc1nc(-c2cccc(Oc3ccc(C(C)(C)c4ccc(O[C@H]5C[C@@H](Nc6ccc7c(c6)C(=O)N(C6CCC(=O)NC6=O)C7=O)C5)cc4)cc3)n2)no1 (stereo partly drawn) [Example 422]
11 to 100 | CC(C)(c1ccc(Oc2cc(-n3nccn3)ncn2)cc1)c1ccc(O[C@H]2C[C@@H](Nc3ccc4c(c3)C(=O)N(C3CCC(=O)NC3=O)C4=O)C2)cc1 (stereo partly drawn) [Example 577]
11 to 100 | CN[C@H]1CCCN(c2nccc(COc3ccc(C(C)(C)c4ccc(O[C@H]5C[C@@H](Nc6ccc7c(c6)C(=O)N(C6CCC(=O)NC6=O)C7=O)C5)cc4)cc3)n2)C1 (stereo partly drawn) [Example 403]
11 to 100 | CC(C)(c1ccc(OCc2ccnc(N3CCC4(CNC4)C3)n2)cc1)c1ccc(O[C@H]2C[C@H](Nc3ccc4c(c3)C(=O)N(C3CCC(=O)NC3=O)C4=O)C2)cc1 (stereo partly drawn) [Example 83, 5-(((1r,3r)-3-(4-(2-(4-((2-(2,6-diazaspiro[3.4]octan-6-yl)pyrimidin-4-yl)methoxy)phenyl)propan-2-yl)phenoxy)cyclobutyl)amino)-2-(2,6-dioxopiperidin-3-yl)isoindolin-1,3-dione]
11 to 100 | Cc1nnc(-c2coc(Oc3ccc(C(C)(C)c4ccc(O[C@H]5C[C@H](Nc6ccc7c(c6)C(=O)N(C6CCC(=O)NC6=O)C7=O)C5)cc4)cc3)n2)o1 (stereo partly drawn) [Example 514]
11 to 100 | CC(C)(c1ccc(OCCCNc2ccc3c(c2)C(=O)N(C2CCC(=O)NC2=O)C3=O)cc1)c1ccc(OCc2nc3ncccc3o2)cc1 (stereo not drawn) [Example 442, 2-(2,6-dioxopiperidin-3-yl)-5-((3-(4-(2-(4-(oxazolo[4,5-b]pyridin-2-ylmethoxy)phenyl)propan-2-yl)phenoxy)propyl)amino)isoindolin-1,3-dione]
11 to 100 | CCOC(=O)c1ncc(Oc2ccc(C(C)(C)c3ccc(O[C@H]4C[C@H](Nc5ccc6c(c5)C(=O)N(C5CCC(=O)NC5=O)C6=O)C4)cc3)cc2)cn1 (stereo partly drawn) [Example 381, ethyl 5-(4-(2-(4-((1r,3r)-3-((2-(2,6-dioxopiperidin-3-yl)-1,3-dioxoisoindolin-5-yl)amino)cyclobutyloxy)phenyl)isopropan-2-yl)phenoxy)pyrimidin-2-carboxylate]

same assay, conditions: AR-v7 degradation in 22RV1 cells, 48 h, numeric values

DC50 [nM] | Structure (SMILES)
> 10000 | CC(C)(c1ccc(OCc2ccnc(NS(C)(=O)=O)n2)cc1)c1ccc(OC2CCN(c3ccc4c(c3)C(=O)N(C3CCC(=O)NC3=O)C4=O)CC2)cc1 (stereo not drawn) [Example 34, N-(4-((4-(2-(4-((1-(2-(2,6-dioxopiperidin-3-yl)-1,3-dioxoisoindolin-yl)piperidin-4-yl)oxy)phenyl)propan-2-yl)phenoxy)methyl)pyrimidin-2-yl)methanesulfonamide]
> 10000 | CC(C)(c1ccc(OCCCCCCCOCCCN2CCN(c3ccc4c(c3)C(=O)N(C3CCC(=O)NC3=O)C4=O)CC2)cc1)c1ccc(OCc2ccnc(NS(C)(=O)=O)n2)cc1 (stereo not drawn) [Example 7, N-(4-((4-(2-(4-((7-(3-(4-(2-(2,6-dioxopiperidin-3-yl)-1,3-dioxoisoindolin-5-yl)piperazin-1-yl)propoxy)heptyl)oxy)phenyl)propan-2-yl)phenoxy)methyl)pyrimidin-2-yl)methanesulfonamide]
> 10000 | CC(C)(c1ccc(OCCCOCCCN2CCC3(CC2)CN(c2ccc4c(c2)C(=O)N(C2CCC(=O)NC2=O)C4=O)C3)cc1)c1ccc(OCc2ccnc(NS(C)(=O)=O)n2)cc1 (stereo not drawn) [Example 4]

Structure (SMILES) | DC50 [nM]
CC(C)(c1ccc(OCCCCCCCCOCCCCNc2cccc3c2C(=O)N(C2CCC(=O)NC2=O)C3=O)cc1)c1ccc(OCc2ccnc(NS(C)(=O)=O)n2)cc1 (stereo not drawn) [Example 21, N-(4-((4-(2-(4-((8-(4-((2-(2,6-dioxopiperidin-3-yl)-1,3-dioxoisoindolin-4-yl)amino)butoxy)octyl)oxy)phenyl)propan-2-yl)phenoxy)methyl)pyrimidin-2-yl)methanesulfonamide] | 5770
